Target: T1, Vam7p PX domain (Saccharomyces cerevisiae, UniProt P32912)
T1 sequence (P32912 2-122): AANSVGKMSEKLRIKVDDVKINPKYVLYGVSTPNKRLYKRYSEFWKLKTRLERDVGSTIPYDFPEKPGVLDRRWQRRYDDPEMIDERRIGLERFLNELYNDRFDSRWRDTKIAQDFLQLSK
Assay: 1H-15N HSQC NMR titration
Assay type: binding

CCCCCC(=O)OC[C@H](COP(=O)(O)OC[C@H](N)C(=O)O)OC(=O)CCCCC [C6-PtdSer, 1,2-dicaproyl-sn-glycero-3-[phospho-L-serine]]
1H-15N HSQC NMR titration (chemical shift perturbation): NMR titration of soluble dicaproyl (C6)-PtdSer into the PX domain

From article PMC1838524 (The Journal of biological chemistry, 2006)
